Test results reported in US20230058316A1, “PEGYLATED IGE-DEPENDENT HISTAMINE-RELEASING FACTOR (HRF)-BINDING PEPTIDE AND USE THEREOF” (EWHA UNIVERSITY - INDUSTRY COLLABORATION FOUNDATION, priority 2020, published 2023).
Where no end group is shown, it is not given here.

System: IL-4
Assay: IL-4 secretion in bronchoalveolar lavage fluid, ovalbumin-induced bronchial asthma and rhinitis mouse model
Format: in vivo
Conditions: 1 mg/kg IP
Experimental: A bronchial asthma and rhinitis animal model was prepared by the following method. An ovalbumin solution was prepared by dissolving ovalbumin in an aluminum hydroxide solution (1 mg/ml) 28 and 14 days before the start of inducing bronchial asthma and rhinitis, and 200 μl of the solution was intraperitoneally injected into each mouse for sensitization. After 14 days of final sensitization, 20 μl of saline/PBS (normal control; NC) or 20 μl of 10 mg/mL ovalbumin solution (positive control; PC) was instilled into the nasal cavity of each lightly anesthetized mouse 4 times every other day for 8 days to induce bronchial asthma and rhinitis.
After the end of the experiment, the amount of IL-4 in the supernatant obtained by centrifuging bronchoalveolar lavage fluid was measured and quantified by enzyme immunosorbent detection using mouse IL-4 ELISA kit (Biolegend, USA).
Next, in order to confirm whether there is an effect of inhibiting IL-4 secretion even when administered in a small number of times, the dTBP2 of Preparative Example 4 and Example 3 was administered to the mouse model of Example 4-1 through intraperitoneal injection once in 4 days for a total of 2 times for 8 days inducing bronchial asthma and rhinitis. The amount of IL-4 was measured and quantified by the enzyme immunosorbent detection method in the same manner.
In addition, the dTBP2 of Preparative Example 4 and Example 3 was administered to the mouse model of Example 4-1 through intraperitoneal injection once on the 1st day of 8 days inducing bronchial asthma and rhinitis. The amount of IL-4 was measured and quantified by the enzyme immunosorbent detection method in the same manner.
The amount of IL-4 was measured and quantified by the enzyme immunosorbent detection method in the same manner.

Substance: Example 3: dTBP2 (WYVYPSM) conjugated at the N-terminal with methoxy polyethylene glycol propionaldehyde (10 kDa) ({mPEG propionaldehyde 10 kDa}-WYVYPSM)
- reduction of IL-4 secretion (8 times daily for 8 days, FIG. 14): about 60%
- inhibiting IL-4 secretion (once in 4 days for a total of 2 times (FIG. 15) and once on the 1st day (FIG. 16)): effective
- IL-4 secretion inhibitory effect (once on the 5th day of 8 days, FIG. 17): effectively inhibited
